{"source": "patent US9446039B2", "about": "“Aminoheteroaryl compounds as MTH1 inhibitors” (CEMM—FORSCHUNGSZENTRUM FÜR MOLEKULARE MEDIZIN GMBH, priority 2012, dated 2016)", "type_in_all_cases": "binding", "key": {"[1]": {"biological_target": "T1, SW480 colon carcinoma cells lysate proteins (Homo sapiens, UniProt P21980)", "T1 sequence (P21980 1-687)": "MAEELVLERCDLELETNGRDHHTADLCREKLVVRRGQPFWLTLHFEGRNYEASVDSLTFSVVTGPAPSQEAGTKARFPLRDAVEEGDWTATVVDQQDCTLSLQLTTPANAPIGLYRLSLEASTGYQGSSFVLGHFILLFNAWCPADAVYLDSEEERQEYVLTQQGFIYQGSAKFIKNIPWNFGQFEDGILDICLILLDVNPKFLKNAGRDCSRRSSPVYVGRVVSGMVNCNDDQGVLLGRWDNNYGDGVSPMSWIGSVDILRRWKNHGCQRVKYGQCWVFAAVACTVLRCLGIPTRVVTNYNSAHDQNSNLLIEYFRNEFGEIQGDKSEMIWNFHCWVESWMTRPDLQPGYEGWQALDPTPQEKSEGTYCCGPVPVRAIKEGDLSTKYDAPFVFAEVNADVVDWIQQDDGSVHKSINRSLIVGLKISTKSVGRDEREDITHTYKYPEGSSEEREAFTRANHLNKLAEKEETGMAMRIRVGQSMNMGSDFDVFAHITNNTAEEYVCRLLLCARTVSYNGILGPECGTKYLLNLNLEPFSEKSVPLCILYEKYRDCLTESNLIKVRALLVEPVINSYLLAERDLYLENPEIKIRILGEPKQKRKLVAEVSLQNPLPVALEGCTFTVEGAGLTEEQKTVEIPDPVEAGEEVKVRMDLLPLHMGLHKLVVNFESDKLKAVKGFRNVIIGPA", "conditions": "PreyGene TGM2"}, "[2]": {"biological_target": "T2, SW480 colon carcinoma cells lysate proteins (Homo sapiens, UniProt P51659)", "T2 sequence (P51659 1-736)": "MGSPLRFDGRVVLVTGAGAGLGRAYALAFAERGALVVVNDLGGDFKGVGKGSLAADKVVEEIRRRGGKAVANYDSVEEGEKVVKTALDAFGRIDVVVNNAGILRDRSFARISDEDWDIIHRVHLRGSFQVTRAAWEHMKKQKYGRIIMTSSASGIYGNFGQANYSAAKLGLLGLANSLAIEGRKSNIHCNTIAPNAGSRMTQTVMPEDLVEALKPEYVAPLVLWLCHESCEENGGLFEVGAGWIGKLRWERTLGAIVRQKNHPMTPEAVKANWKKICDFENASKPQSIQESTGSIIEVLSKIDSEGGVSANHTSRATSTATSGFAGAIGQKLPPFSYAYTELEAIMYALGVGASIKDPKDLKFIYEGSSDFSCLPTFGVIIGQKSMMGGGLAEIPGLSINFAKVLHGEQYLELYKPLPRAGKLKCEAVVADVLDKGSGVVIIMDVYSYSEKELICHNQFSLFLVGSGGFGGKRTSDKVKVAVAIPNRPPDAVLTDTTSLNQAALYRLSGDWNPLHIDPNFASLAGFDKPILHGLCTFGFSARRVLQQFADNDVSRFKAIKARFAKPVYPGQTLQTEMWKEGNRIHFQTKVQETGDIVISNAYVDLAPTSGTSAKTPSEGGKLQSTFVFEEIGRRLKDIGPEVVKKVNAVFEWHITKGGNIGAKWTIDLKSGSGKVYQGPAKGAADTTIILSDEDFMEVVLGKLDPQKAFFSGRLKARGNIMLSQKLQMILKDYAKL", "conditions": "PreyGene HSD17B4"}, "[3]": {"biological_target": "T3, SW480 colon carcinoma cells lysate proteins (Homo sapiens, UniProt P55209)", "T3 sequence (P55209 1-391)": "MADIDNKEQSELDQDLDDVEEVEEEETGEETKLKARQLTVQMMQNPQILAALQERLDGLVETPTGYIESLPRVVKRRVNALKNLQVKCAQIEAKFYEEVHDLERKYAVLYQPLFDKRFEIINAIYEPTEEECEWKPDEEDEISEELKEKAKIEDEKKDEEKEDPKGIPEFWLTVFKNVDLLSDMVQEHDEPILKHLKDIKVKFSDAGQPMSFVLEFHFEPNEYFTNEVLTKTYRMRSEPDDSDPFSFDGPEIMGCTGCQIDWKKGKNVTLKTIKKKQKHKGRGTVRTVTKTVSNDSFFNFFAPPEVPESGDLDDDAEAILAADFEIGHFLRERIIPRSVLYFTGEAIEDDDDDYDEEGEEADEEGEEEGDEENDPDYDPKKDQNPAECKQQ", "conditions": "PreyGene NAP1L1"}, "[4]": {"biological_target": "T4, SW480 colon carcinoma cells lysate proteins (Homo sapiens, UniProt P30041)", "T4 sequence (P30041 1-224)": "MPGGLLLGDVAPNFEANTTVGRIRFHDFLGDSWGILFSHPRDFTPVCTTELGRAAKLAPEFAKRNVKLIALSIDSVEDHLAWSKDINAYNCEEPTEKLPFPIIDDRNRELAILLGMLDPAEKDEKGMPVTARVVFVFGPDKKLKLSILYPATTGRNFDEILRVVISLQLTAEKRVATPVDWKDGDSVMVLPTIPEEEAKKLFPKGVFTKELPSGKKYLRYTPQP", "conditions": "PreyGene PRDX6"}}, "data": [{"smiles": "C[C@H](Oc1cc(-c2cnn(C3CCNCC3)c2)cnc1N)c1c(Cl)ccc(F)c1Cl", "note": "[(5)-crizotinib]", "values": [{"measurement": "AvgP", "setting": "[1]", "result": 0.2455}, {"measurement": "SC.Exp. 1-1", "setting": "[1]", "result": 6}, {"measurement": "SC.Exp. 1-2", "setting": "[1]", "result": 5}, {"measurement": "SC.Exp. 2-1", "setting": "[1]", "result": 0}, {"measurement": "SC.Exp. 2-2", "setting": "[1]", "result": 0}, {"measurement": "Sum (SC.Exp.)", "setting": "[1]", "result": 11}, {"measurement": "AvgP", "setting": "[2]", "result": 0.3179}, {"measurement": "SC.Exp. 1-1", "setting": "[2]", "result": 2}, {"measurement": "SC.Exp. 1-2", "setting": "[2]", "result": 3}, {"measurement": "SC.Exp. 2-1", "setting": "[2]", "result": 0}, {"measurement": "SC.Exp. 2-2", "setting": "[2]", "result": 0}, {"measurement": "Sum (SC.Exp.)", "setting": "[2]", "result": 5}, {"measurement": "AvgP", "setting": "[3]", "result": 0.2244}, {"measurement": "SC.Exp. 1-1", "setting": "[3]", "result": 1}, {"measurement": "SC.Exp. 1-2", "setting": "[3]", "result": 2}, {"measurement": "SC.Exp. 2-1", "setting": "[3]", "result": 0}, {"measurement": "SC.Exp. 2-2", "setting": "[3]", "result": 0}, {"measurement": "Sum (SC.Exp.)", "setting": "[3]", "result": 3}, {"measurement": "AvgP", "setting": "[4]", "result": 0.1992}, {"measurement": "SC.Exp. 1-1", "setting": "[4]", "result": 8}, {"measurement": "SC.Exp. 1-2", "setting": "[4]", "result": 8}, {"measurement": "SC.Exp. 2-1", "setting": "[4]", "result": 0}, {"measurement": "SC.Exp. 2-2", "setting": "[4]", "result": 0}, {"measurement": "Sum (SC.Exp.)", "setting": "[4]", "result": 16}]}]}
